Reference: ChEMBL document CHEMBL5137025, “Tuberculosis Drug Discovery: Challenges and New Horizons” (J Med Chem, 2022)
In brackets after ≈: the same amount, converted by molar mass.

Columns and labels:
[1] = system: Mycobacterium tuberculosis; experiment: microbe, parasite or virus in culture; conditions: H37Rv
Description: Antibacterial activity against Mycobacterium tuberculosis H37Rv assessed as inhibition of bacterial growth

[2] = system: Mycobacterium tuberculosis; experiment: Antibacterial activity against Mycobacterium tuberculosis in acute Mtb infection BALB/c mouse model assessed as reduction in log10 CFU in lungs at 100 mg/kg for 3 weeks; assay type: functional
[3] = Absolute oral bioavailability in overnight fasted Sprague-Dawley rat at 5 mg/kg measured for 0.25 to 24 hrs; assay type: ADME, organism-based; conditions: in vivo, time 0.25-24 hrs
[4] = Protein binding in human plasma; assay type: ADME, cell-free; conditions: read-out: PPB (converted)
[5] = Solubility of the compound; assay type: physicochemical
A549 = experiment: Cytotoxicity against human A549 cells; assay type: functional
[6] = system: Mycobacterium tuberculosis; experiment: Antibacterial activity against Mycobacterium tuberculosis Erdman in acute Mtb infection BALB/c mouse model assessed as reduction in log10 CFU in lungs at 150 mg/kg, po via gavage daily for 4 weeks; assay type: functional
[7] = AUC in overnight fasted Sprague-Dawley rat at 5 mg/kg measured for 0.25 to 24 hrs; assay type: ADME, organism-based; parameters: time upper 24 hrs, dose 5 mg/kg, time lower 0.25 hrs; conditions: in vivo
[8] = Half life in overnight fasted Sprague-Dawley rat at 5 mg/kg measured for 0.25 to 24 hrs; assay type: ADME, organism-based; conditions: in vivo, time 0.25-24 hrs
[9] = system: Mycobacterium tuberculosis; assay type: functional; conditions: H37Rv, time 6 day
[10] = system: Mycobacterium tuberculosis; assay type: functional, H37Rv; conditions: dose 25 mg/kg; route po; time 8 weeks
[11] = system: Mycobacterium tuberculosis; assay type: functional; conditions: H37Rv, 168 h, time 7 day
[12] = Aqueous solubility of compound in PBS at pH 7.4 incubated for 1 hr; assay type: physicochemical
[13] = system: Mycobacterium tuberculosis; assay type: functional; conditions: H37Rv
[14] = system: Mycobacterium tuberculosis; assay type: functional; conditions: H37Rv, 336 h, time 14 day
[15] = system: Mycobacterium tuberculosis; experiment: Antibacterial activity against Mycobacterium tuberculosis assessed as inhibition of bacterial growth; assay type: functional
[16] = system: Mycobacterium tuberculosis; assay type: functional, H37Rv; conditions: dose 100 mg/kg
HepG2 [17] = experiment: Cytotoxicity against human HepG2 cells; assay type: functional
[18] = target: T1, Voltage-gated inwardly rectifying potassium channel KCNH2 (Homo sapiens, UniProt Q12809); experiment: Inhibition of hERG by Qpatch assay; assay type: toxicity
[19] = Oral bioavailability in mouse; assay type: ADME, organism-based; conditions: in vivo
[20] = Half life in mouse; assay type: ADME, organism-based; conditions: in vivo
[21] = Inhibition of bacterial InhA expressed in Escherichia coli BL21 (DE3) incubated for 1 hr by […]; parameters: species or system Bacteria
[22] = system: Mycobacterium tuberculosis; assay type: functional, H37Rv; conditions: dose 300 mg/kg; time 8 day
[23] = system: Mycobacterium tuberculosis; assay type: functional, H37Rv; conditions: dose 25 mg/kg; route po; time 4 weeks
[24] = system: Mycobacterium tuberculosis; assay type: functional, H37Rv; conditions: dose 50 mg/kg/day; route po; time <= 28 day
[25] = system: Mycobacterium tuberculosis; experiment: Antibacterial activity against Mycobacterium tuberculosis in chronic Mtb infection mouse model assessed as reduction in log10 CFU at 100 mg/kg bid; assay type: functional
[26] = system: Mycobacterium tuberculosis; experiment: Bactericidal activity against Mycobacterium tuberculosis in macrophages; assay type: functional, Macrophage
[27] = system: Mycobacterium tuberculosis; assay type: functional; conditions: H37Rv, 168 h, time 7 day; remark: listed apart in the source
[28] = system: Mycobacterium tuberculosis; experiment: Bactericidal activity against Mycobacterium tuberculosis H37Rv in chronic Mtb infection BALB/c mouse model assessed as log10 CFU kill at 20 mg/kg, po qd via gavage measured after 4 weeks; assay type: functional
[29] = system: Mycobacterium tuberculosis; experiment: Antibacterial activity against Mycobacterium tuberculosis Erdman in acute Mtb infection C57BL/6-IFN-gamma-tm1Ts KO mouse model assessed as reduction in log10 CFU in lungs at 50 mg/kg, po qd for 9 consecutive days; assay type: functional
[30] = Half life in CD-1 mouse at 5 mg/kg, iv measured for 24 hrs; assay type: ADME, organism-based; conditions: in vivo
[31] = system: Mycobacterium tuberculosis; assay type: functional; conditions: H37Rv, 120 h, time 5 day
[32] = system: Mycobacterium tuberculosis; experiment: Antibacterial activity against Mycobacterium tuberculosis Erdman (TMCC 107) in Mtb infection C3HeB/FeJ mouse model assessed as reduction in log10 CFU in lungs at 100 mg/kg, po via gavage upto 4 weeks; assay type: functional
[33] = Oral bioavailability in CD-1 mouse at 10 mg/kg measured for 24 hrs; assay type: ADME, organism-based; conditions: in vivo
[34] = system: Mycobacterium tuberculosis; experiment: Antibacterial activity against Mycobacterium tuberculosis Erdman (TMCC 107) in chronic Mtb infection BALB/c mouse model assessed as reduction in log10 CFU in lungs at 100 mg/kg, po via gavage upto 8 weeks; assay type: functional
HepG2 [35] = experiment: Cytotoxicity against human HepG2 cells assessed as reduction in cell viability treated for 72 hrs by Cell Titer Glo assay; assay type: functional
[36] = Cytotoxicity against African green monkey Vero cells treated for 72 hrs by MTT assay; assay type: toxicity, cell-based; conditions: chlorocebus sabaeus
[37] = target: T1, Voltage-gated inwardly rectifying potassium channel KCNH2
HepG2 [38] = experiment: Cytotoxicity against human HepG2 cells treated for 72 hrs by MTT assay; assay type: functional
[39] = system: Mycobacterium tuberculosis; experiment: Antibacterial activity against Mycobacterium tuberculosis in chronic Mtb infection BALB/c mouse model assessed as reduction in log10 CFU in lungs at 200 mg/kg for 4 weeks; assay type: functional
[40] = system: Mycobacterium tuberculosis; experiment: Antibacterial activity against Mycobacterium tuberculosis in acute Mtb infection mouse model assessed as reduction in log10 CFU at 200 mg/kg for 3 weeks; assay type: functional
[41] = system: Mycobacterium tuberculosis; assay type: functional; conditions: H37Rv, 168 h, time 7 day; remark: listed apart in the source
[42] = system: Mycobacterium tuberculosis; experiment: Antibacterial activity against Mycobacterium tuberculosis Erdman in acute Mtb infection BALB/c mouse model assessed as reduction in log10 CFU in lungs at 200 mg/kg, po daily via gavage for 3 weeks; assay type: functional
[43] = Cytotoxicity against human MRC5 cells; assay type: toxicity, cell-based
[44] = system: Mycobacterium tuberculosis; experiment: Antibacterial activity against non-replicating Mycobacterium tuberculosis assessed as inhibition of bacterial growth; assay type: functional

T1 sequence (Q12809 whole entry): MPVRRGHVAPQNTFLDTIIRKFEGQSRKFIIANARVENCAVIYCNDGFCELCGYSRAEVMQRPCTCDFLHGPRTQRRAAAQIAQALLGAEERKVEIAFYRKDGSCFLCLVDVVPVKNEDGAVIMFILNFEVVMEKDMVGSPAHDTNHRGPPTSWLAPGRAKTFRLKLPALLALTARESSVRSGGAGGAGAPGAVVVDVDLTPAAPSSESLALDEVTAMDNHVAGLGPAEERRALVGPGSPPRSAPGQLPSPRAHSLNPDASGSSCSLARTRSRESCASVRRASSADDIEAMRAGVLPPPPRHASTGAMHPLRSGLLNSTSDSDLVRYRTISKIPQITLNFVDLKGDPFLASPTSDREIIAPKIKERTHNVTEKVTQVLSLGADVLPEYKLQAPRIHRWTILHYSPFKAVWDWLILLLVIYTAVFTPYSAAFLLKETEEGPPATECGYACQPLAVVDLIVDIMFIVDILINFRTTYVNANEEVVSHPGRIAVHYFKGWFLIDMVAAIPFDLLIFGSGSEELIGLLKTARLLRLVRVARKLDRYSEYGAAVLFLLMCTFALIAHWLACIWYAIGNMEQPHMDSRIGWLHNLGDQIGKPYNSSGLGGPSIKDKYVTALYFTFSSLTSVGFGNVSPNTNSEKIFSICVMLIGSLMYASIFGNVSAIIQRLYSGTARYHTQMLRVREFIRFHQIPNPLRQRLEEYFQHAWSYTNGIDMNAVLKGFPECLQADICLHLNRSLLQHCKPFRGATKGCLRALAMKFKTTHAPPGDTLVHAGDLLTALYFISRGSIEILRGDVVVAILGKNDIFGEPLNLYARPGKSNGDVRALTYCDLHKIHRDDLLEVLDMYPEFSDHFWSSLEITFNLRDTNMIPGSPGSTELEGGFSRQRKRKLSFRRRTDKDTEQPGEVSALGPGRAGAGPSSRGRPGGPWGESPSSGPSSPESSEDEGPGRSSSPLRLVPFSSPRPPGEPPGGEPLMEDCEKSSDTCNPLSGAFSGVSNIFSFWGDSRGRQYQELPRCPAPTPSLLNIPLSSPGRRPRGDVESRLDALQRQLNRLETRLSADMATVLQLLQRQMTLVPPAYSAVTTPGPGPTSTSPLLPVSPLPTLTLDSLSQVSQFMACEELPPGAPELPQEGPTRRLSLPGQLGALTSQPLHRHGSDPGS

O=c1c(NCc2ccccn2)c(-c2ccc(C(F)(F)F)cc2)c1=O
MIC80 [1]: 6.2 µM (≈ 2.06 µg/mL)

CCOC(=O)NC(=O)c1ccsc1NC(=O)c1nc2ccccc2s1
Activity [2]: 2.9 log10CFU | MIC90 [1]: 0.23 µM (≈ 0.0863 µg/mL)

CC(C)=CCC/C(C)=C/CNCCNC1C2CC3CC(C2)CC1C3 (stereo unspecified) [SQ109]
MIC [1]: 1.2 µM (≈ 0.397 µg/mL)

O=c1nc(N2CCC3(CC2)OCCO3)sc2c([N+](=O)[O-])cc(C(F)(F)F)cc12
bioavailability [3]: 44% | fraction unbound [4]: 0.006 | solubility [5]: < 2.3 µM | CC50 (A549): > 231 µM | Activity [6]: 3.4 log10CFU | MIC90 [1]: 0.045 µM (≈ 0.0188 µg/mL) | AUC [7]: 847 ng·h/mL | half-life [8]: 1.5 h

CNc1nc(SC)nc2ccccc12
MIC [9]: 0.13 µM (≈ 0.0267 µg/mL)

CON=C1CCC(CN2CCN(c3nc(=O)c4cc(C(F)(F)F)cc([N+](=O)[O-])c4s3)CC2)CC1 (stereo unspecified)
Activity [10]: 1.8 log10CFU | MIC90 [11]: 0.028 µM (≈ 0.014 µg/mL)

Cc1ccn(C(C)c2nnc(Nc3ccn(Cc4c(F)cccc4Cl)n3)s2)n1 (stereo unspecified)
solubility at 1 h [12]: 9 µM (≈ 3.76 µg/mL) | MIC90 [13]: 1 µM (≈ 0.418 µg/mL)

O=C(Nc1ccc(N2CCN(c3ccccn3)CC2)c(F)c1)c1ccc2no[n+]([O-])c2c1
MIC90 [14]: 0.09 µM (≈ 0.0391 µg/mL)

CCNC(=O)Nc1nc2cc(-c3cnc(C(C)(C)O)nc3)c(F)c([C@H]3CCCO3)c2[nH]1
MIC90 [15]: 0.07 µM (≈ 0.03 µg/mL)

Cc1csc([C@](C)(O)c2nnc(Nc3ccn(Cc4csc(C)n4)n3)s2)n1
solubility at 1 h [12]: 413 µM (≈ 173 µg/mL) | Activity [16]: 3 log10CFU | CC50 (HepG2 [17]): > 50 µM | IC50 [18]: > 50 µM | bioavailability [19]: 92% | half-life [20]: 0.933 h | MIC90 [13]: 0.2 µM (≈ 0.0839 µg/mL) | IC50 [21]: 0.007 µM | Activity [22]: 3 log10CFU

O=c1nc(N2CCN(CC3CCCCC3)CC2)sc2c([N+](=O)[O-])cc(C(F)(F)F)cc12 [MACOZINONE]
Activity [23]: 1 log10CFU | Activity [24]: 1.1 log10CFU

FC(F)(F)Oc1ccc(Oc2ccc(CN3CCC4(CC3)OCCc3sccc34)cc2)cc1
solubility [5]: 6 µM (≈ 2.85 µg/mL) | CC50 (HepG2 [17]): 36 µM | bioavailability [19]: 55% | MIC90 [1]: 0.06 µM (≈ 0.0285 µg/mL)

CCNC(=O)Nc1nc2cc(-c3cnc(C(C)(C)OP(=O)(O)O)nc3)c(F)c([C@H]3CCCO3)c2[nH]1
Activity [25]: 2.5 log10CFU

Cc1cccc(OC2CCN(Cc3cc(=O)[nH]c(=O)[nH]3)CC2)c1C [GSK-2556286]
Activity [26]: <0.1 µM

COc1ncccc1Nc1cc2nc3ccccc3n(-c3ccc(OC(F)(F)F)cc3)c-2c/c1=N\C1CCC(OC)CC1 (stereo unspecified)
MIC90 [27]: < 0.008 µM | Activity [28]: 1.7 log10CFU

CCS(=O)(=O)N1N=Cc2ccc(Oc3ccc(C(F)(F)F)cc3/C=N/O)cc2B1O
Activity [29]: 3.7 log10CFU | half-life [30]: 3.5 h | MIC90 [31]: 0.09 µM (≈ 0.0397 µg/mL) | Activity [32]: 1.5 log10CFU | bioavailability [33]: 53% | Activity [34]: 1.7 log10CFU | CC50 (HepG2 [35]): > 100 µM

FC(F)(F)c1ccc(Oc2ccc(Nc3ncnc4ccccc34)cc2)cc1
MIC50 [1]: 25 µM (≈ 9.53 µg/mL)

COc1ncc(-c2ccc(Cl)cc2)cc1[C@@H](c1ccccc1)[C@@](O)(CCN(C)C)c1cccc2ccccc12
MIC90 [1]: 0.13 µM (≈ 0.0698 µg/mL)

CCOC(=O)NC(=O)c1ccsc1NC(=O)c1nc2cnccc2s1
CC50 at 72 h [36]: > 100 µM | IC50 [37]: > 30 µM | Activity [2]: 2.3 log10CFU | CC50 (HepG2 [38]): > 100 µM | Activity [39]: >1.7 log10CFU | MIC90 [1]: 0.089 µM (≈ 0.0335 µg/mL)

CC(Nc1nc(N2CCCCC2)nc2ccccc12)c1ccccc1 (stereo unspecified)
MIC80 [1]: 25 µM (≈ 8.31 µg/mL)

C[C@@H](O)[C@H]1C(=O)N2C(C(=O)O)=C([C@H]3CCCO3)S[C@H]12 [FAROPENEM]
Activity [40]: 2.4 log10CFU | MIC90 [1]: 1.8 µM (≈ 0.514 µg/mL)

O=C(C1CCN(c2nnc(-n3cccc3)s2)CC1)N1CCC(Cc2ccccc2)CC1
MIC90 [1]: 4 µM (≈ 1.74 µg/mL)

O=C(N/N=C/c1ccc(Oc2no[n+]([O-])c2S(=O)(=O)c2ccccc2)cc1)c1ccncc1
MIC [41]: 1 µM (≈ 0.465 µg/mL) | Activity [42]: >6 log10CFU | CC50 [43]: 43 µM | MIC90 [44]: 9.8 µM (≈ 4.56 µg/mL)
